US20060084657A1, “Piperazine derivative” (priority 2001, published 2006)
pIC50: −log10 of the molar value.

Target: T1, human MC4 receptor (Homo sapiens, UniProt P32245)
T1 construct: purchased BioLinks K.K; host or cells: HEK-293 cell membranes
Assay: Test for binding to MC4 receptor
Details: HEK-293 cell membranes expressing the human MC4 receptor; [125I]Nle4-D-Phe7-α-MSH 0.2 nM; 25° C. for 120 minutes
Description: The test for binding to MC4 receptor was carried out according to the method as described in Pharmacology & Toxicology, 79, 161-165, 1996. HEK-293 cell membranes expressing the human MC4 receptor were purchased from BioLinks K.K. The cell membranes were homogenized in a 50 mM Tris-hydrochloric buffer (pH 7.4) containing 2 mM ethylenediaminetetraacetic acid, 10 mM calcium chloride and 100 μM phenymethylsulfonyl fluoride. The homogenate was centrifuged at 48,000×g at 4° C. for 20 minutes. The precipitate obtained by centrifugation was re-homogenized in the same buffer, and then the homogenate was centrifuged at 48,000×g at 4° C. for 20 minutes. This manipulation was repeated twice. The precipitates were suspended in a 50 mM Tris-hydrochloric acid buffer (pH 7.4) containing 2 mM ethylenediaminetetraacetic acid, 10 mM calcium chloride, 100 μM phenymethylsulfonyl fluoride and 0.1% bovine serum albumin so as to provide a protein concentration of 100 μg/ml. The suspension was used for the binding test as a crude membrane specimen. The crude membrane specimen (0.25 ml, 25 μg protein) was allowed to react with [^125I]Nle^4-D-Phe^7-α-MSH (final concentration of 0.2 nM) at 25° C. for 120 minutes. […] Radioactivity on the filter papers was measured using a γ-counter. […] IC50 value was calculated from inhibition curve at concentrations of from 10^−8 to 10^−5.

T1 sequence (P32245 whole entry): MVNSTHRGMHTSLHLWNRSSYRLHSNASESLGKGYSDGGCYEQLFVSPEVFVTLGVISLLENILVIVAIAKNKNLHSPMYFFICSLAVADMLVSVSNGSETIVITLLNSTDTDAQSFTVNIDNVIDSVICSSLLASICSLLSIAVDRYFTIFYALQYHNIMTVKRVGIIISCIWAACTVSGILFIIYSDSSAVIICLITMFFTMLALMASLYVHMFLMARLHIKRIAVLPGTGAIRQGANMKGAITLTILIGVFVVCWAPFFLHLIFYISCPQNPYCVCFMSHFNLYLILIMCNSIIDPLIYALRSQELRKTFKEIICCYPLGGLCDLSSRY

pIC50: 6.79
Structure (SMILES): CC(C)N1CCN(C(CN2CCN(CCCc3sc(-c4ccccc4)nc3-c3ccccc3)CC2)c2ccc(F)cc2)CC1 (stereo not shown) [Compound 86]
